These results are taken from patent US20250171457A1, “NITROGEN-CONTAINING HETEROCYCLIC COMPOUND HAVING NRF2 ACTIVATION EFFECT” (CHUGAI SEIYAKU KABUSHIKI KAISHA, priority 2022, published 2025).

Molecules are shown by their SMILES. pEC50: −log10 of the molar value.

The subject of the assay is Nrf2 transcriptional activity (pARE-Luc reporter) in HepG2 cells. As to the kind of experiment: In vitro Nrf2 transcriptional activity measurement by ARE-dependent reporter assay in HepG2 cell. The settings on record: Homo sapiens; HepG2 cells transfected with pARE-Luc, 4 hours at 37° C.; luciferase activity of Example 1-54 or Example 17-23 at 3.75 μM defined as 100%. Format: cell-based, human. The procedure, abridged:
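Luminescence readout (Bright-Glo) after 4 h, 37° C compound exposure of HepG2 cells carrying the ARE-luciferase vector pGL4.37. Each well converted to % response versus reference compound at 3.75 μM, and EC50 derived from dose-response curves.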
(A reporter such as luciferase makes a cellular process visible.)
By pEC50 is commonly meant the negative decadic logarithm of the EC50, by convention in mol/L. A low value points to a high EC50. Consider `C[C@@H]1CN(c2cc(Cl)c(C(=O)N3COc4c(cccc4-c4cc(N5C6CCC5COC6)c(C(=O)O)cc4F)C3)c(Cl)c2)CCO1` [Compound 4-18, 4-[3-[2,6-Dichloro-4-[(2R)-2-methylmorpholin-4-yl]benzoyl]-2,4-dihydro-1,3-benzoxazin-8-yl]-5-fluoro-2-(3-oxa-8-azabicyclo[3.2.1]octan-8-yl)benzoic acid], for which the pEC50 is 8.44. For `O=C(O)c1cc(F)c(-c2cccc3c2OCN(C(=O)c2c(Cl)cc(N4CCOCC4)cc2Cl)C3)cc1N1C2CCC1COC2` [Compound 4-19, 4-[3-(2,6-Dichloro-4-morpholin-4-ylbenzoyl)-2,4-dihydro-1,3-benzoxazin-8-yl]-5-fluoro-2-(3-oxa-8-azabicyclo[3.2.1]octan-8-yl)benzoic acid] the value was 8.54; for `O=C(O)c1ccc(-c2cccc3c2OCN(C(=O)c2c(Cl)cc(N4CC[C@@H](O)C4)cc2Cl)C3)cc1N1CCOCC1` [Compound 4-20, 4-[3-[2,6-Dichloro-4-[(3R)-3-hydroxypyrrolidin-1-yl]benzoyl]-2,4-dihydro-1,3-benzoxazin-8-yl]-2-morpholin-4-ylbenzoic acid], 8.52. The result for `O=C(O)c1ccc(-c2cccc3c2OCN(C(=O)c2c(Cl)cc(N4CC5(COC5)C4)cc2Cl)C3)cc1N1CCOCC1` [Compound 4-21, 4-[3-[2,6-Dichloro-4-(2-oxa-6-azaspiro[3.3]heptan-6-yl)benzoyl]-2,4-dihydro-1,3-benzoxazin-8-yl]-2-morpholin-4-ylbenzoic acid] reads 8.13. For `CN1CCCN(c2cc(Cl)c(C(=O)N3COc4c(cccc4-c4cc(N5CCOCC5)c(C(=O)O)cc4F)C3)c(Cl)c2)CC1` [Compound 4-22, 4-[3-[2,6-Dichloro-4-(4-methyl-1,4-diazepan-1-yl)benzoyl]-2,4-dihydro-1,3-benzoxazin-8-yl]-5-fluoro-2-morpholin-4-ylbenzoic acid] the value was 8.74; for `COCCN(C)c1cc(Cl)c(C(=O)N2COc3c(cccc3-c3cc(N4CCOCC4)c(C(=O)O)cc3F)C2)c(Cl)c1` [Compound 4-23, 4-[3-[2,6-Dichloro-4-[2-methoxyethyl(methyl)amino]benzoyl]-2,4-dihydro-1,3-benzoxazin-8-yl]-5-fluoro-2-morpholin-4-ylbenzoic acid], 8.82.

Molecule `O=C(O)c1cc(F)c(-c2cccc3c2OCN(C(=O)c2c(Cl)cc(N4CC5COCC5C4)cc2Cl)C3)cc1N1CCOCC1` (stereo not shown) [Compound 4-24, 4-[3-[4-(1,3,3a,4,6,6a-Hexahydrofuro[3,4-c]pyrrol-5-yl)-2,6-dichlorobenzoyl]-2,4-dihydro-1,3-benzoxazin-8-yl]-5-fluoro-2-morpholin-4-ylbenzoic acid] showed a pEC50 of 8.57. The result for `COCCN1CCCN(c2cc(Cl)c(C(=O)N3COc4c(cccc4-c4cc(N5CCOCC5)c(C(=O)O)cc4F)C3)c(Cl)c2)CC1` [Compound 4-25, 4-[3-[2,6-Dichloro-4-[4-(2-methoxyethyl)-1,4-diazepan-1-yl]benzoyl]-2,4-dihydro-1,3-benzoxazin-8-yl]-5-fluoro-2-morpholin-4-ylbenzoic acid] reads 8.72. The result for `O=C(O)c1cc(F)c(-c2cccc3c2OCN(C(=O)c2c(Cl)cc(N4CCC5(CCOCC5)C4)cc2Cl)C3)cc1N1CCOCC1` [Compound 4-26, 4-[3-[2,6-Dichloro-4-(8-oxa-2-azaspiro[4.5]decan-2-yl)benzoyl]-2,4-dihydro-1,3-benzoxazin-8-yl]-5-fluoro-2-morpholin-4-ylbenzoic acid] reads 8.09. For `O=C(O)c1cc(F)c(-c2cccc3c2OCN(C(=O)c2c(Cl)cc(N4CCC(CO)CC4)cc2Cl)C3)cc1N1CCOCC1` [Compound 4-27, 4-[3-[2,6-Dichloro-4-[4-(hydroxymethyl)piperidin-1-yl]benzoyl]-2,4-dihydro-1,3-benzoxazin-8-yl]-5-fluoro-2-morpholin-4-ylbenzoic acid] the value was 8.96. On to `O=C(O)c1cc(F)c(-c2cccc3c2OCN(C(=O)c2c(Cl)cc(N4CC[C@@H](O)C4)cc2Cl)C3)cc1N1CCOCC1` [Compound 4-28, 4-[3-[2,6-Dichloro-4-[(3R)-3-hydroxypyrrolidin-1-yl]benzoyl]-2,4-dihydro-1,3-benzoxazin-8-yl]-5-fluoro-2-morpholin-4-ylbenzoic acid], for which the pEC50 was 8.80. The result for `CC(C)(C)OC(=O)N1CCN(c2cc(Cl)c(C(=O)N3COc4c(cccc4-c4cc(N5CCOCC5)c(C(=O)O)cc4F)C3)c(Cl)c2)CC1` [Compound 4-29, 4-[3-[2,6-Dichloro-4-[4-[(2-methylpropan-2-yl)oxycarbonyl]piperazin-1-yl]benzoyl]-2,4-dihydro-1,3-benzoxazin-8-yl]-5-fluoro-2-morpholin-4-ylbenzoic acid] reads 8.68; that for `COCC1CN(c2cc(Cl)c(C(=O)N3COc4c(cccc4-c4cc(N5CCOCC5)c(C(=O)O)cc4F)C3)c(Cl)c2)CCN1C` (stereo not shown) [Compound 4-30, 4-[3-[2,6-Dichloro-4-[3-(methoxymethyl)-4-methylpiperazin-1-yl]benzoyl]-2,4-dihydro-1,3-benzoxazin-8-yl]-5-fluoro-2-morpholin-4-ylbenzoic acid], 8.96; that for `CN1CCN(c2cc(Cl)c(C(=O)N3COc4c(cccc4-c4cc(N5CCOCC5)c(C(=O)O)cc4F)C3)c(Cl)c2)CC12CC2` [Compound 4-31, 4-[3-[2,6-Dichloro-4-(4-methyl-4,7-diazaspiro[2.5]octan-7-yl)benzoyl]-2,4-dihydro-1,3-benzoxazin-8-yl]-5-fluoro-2-morpholin-4-ylbenzoic acid], 8.92. The result for `Cc1cc(-c2cccc3c2OCN(C(=O)c2c(Cl)cc(N4CCOCC4)cc2Cl)C3)cc(N2CCOCC2)c1C(=O)O` [Compound 4-32, 4-[3-(2,6-Dichloro-4-morpholin-4-ylbenzoyl)-2,4-dihydro-1,3-benzoxazin-8-yl]-2-methyl-6-morpholin-4-ylbenzoic acid] reads 8.16; that for `O=C(O)c1cc(F)c(-c2cccc3c2OCN(C(=O)c2ccc(N4CC5(COC5)C4)cc2Cl)C3)cc1N1CCOCC1` [Compound 4-33, 4-[3-[2-Chloro-4-(2-oxa-6-azaspiro[3.3]heptan-6-yl)benzoyl]-2,4-dihydro-1,3-benzoxazin-8-yl]-5-fluoro-2-morpholin-4-ylbenzoic acid], 8.29; that for `O=C(O)c1cc(F)c(-c2cccc3c2OCN(C(=O)c2c(Cl)cc(OC[C@H]4CCCO4)cc2Cl)C3)cc1N1C2CCC1COC2` [Compound 4-34, 4-[3-[2,6-Dichloro-4-[[(2R)-oxolan-2-yl]methoxy]benzoyl]-2,4-dihydro-1,3-benzoxazin-8-yl]-5-fluoro-2-(3-oxa-8-azabicyclo[3.2.1]octan-8-yl)benzoic acid], 8.42. For `CC(C)(O)CCOc1cc(Cl)c(C(=O)N2COc3c(cccc3-c3cc(N4C5CCC4COC5)c(C(=O)O)cc3F)C2)c(Cl)c1` [Compound 4-35, 4-[3-[2,6-Dichloro-4-(3-hydroxy-3-methylbutoxy)benzoyl]-2,4-dihydro-1,3-benzoxazin-8-yl]-5-fluoro-2-(3-oxa-8-azabicyclo[3.2.1]octan-8-yl)benzoic acid] the value was 7.70. Consider `O=C(O)c1cc(F)c(-c2cccc3c2OCN(C(=O)c2c(Cl)cc(OC[C@H]4CCOC4)cc2Cl)C3)cc1N1C2CCC1COC2` [Compound 4-38, 4-[3-[2,6-Dichloro-4-[[(3S)-oxolan-3-yl]methoxy]benzoyl]-2,4-dihydro-1,3-benzoxazin-8-yl]-5-fluoro-2-(3-oxa-8-azabicyclo[3.2.1]octan-8-yl)benzoic acid], for which the negative logarithm of the EC50 (pEC50) is 8.29.
